Literature values as cited in US20090318526A1, “Use of cannabinoid receptor agonists as hypothermia inducing drugs for the treatment of ischemia” (priority 2006, published 2009).

Test system: Sprague-Dawley rats
Settings: Leker et al. [37]

For CCCCCCC(C)(C)c1cc(O)c2c(c1)OC(C)(C)[C@@H]1CC=C(CO)C[C@@H]21 [HU-210, (−)-11-OH-delta-8-tetrahydrocannabinoldimethylheptyl], the induction of hypothermia (Sprague-Dawley rats) is listed as “did provide hypothermia”, the “protection against ischemic damages” value (Sprague-Dawley rats) is listed as “protection against ischemic damages” and the “side effects due to the treatment” value (rats) is listed as “hemodynamic and behavioural side effects”.
